The test concerns the target Gastrin-releasing peptide receptor (Homo sapiens, UniProt P30550). Description: Displacement of 125I[Tyr4]-bombesin from GRPR expressed in human PC3 cells. Format: cell-based, PC-3. (In general: Loss of bound radioactivity is the signal in a displacement assay; it reports binding, not function.)

Gastrin-releasing peptide receptor, sequence (P30550 whole entry): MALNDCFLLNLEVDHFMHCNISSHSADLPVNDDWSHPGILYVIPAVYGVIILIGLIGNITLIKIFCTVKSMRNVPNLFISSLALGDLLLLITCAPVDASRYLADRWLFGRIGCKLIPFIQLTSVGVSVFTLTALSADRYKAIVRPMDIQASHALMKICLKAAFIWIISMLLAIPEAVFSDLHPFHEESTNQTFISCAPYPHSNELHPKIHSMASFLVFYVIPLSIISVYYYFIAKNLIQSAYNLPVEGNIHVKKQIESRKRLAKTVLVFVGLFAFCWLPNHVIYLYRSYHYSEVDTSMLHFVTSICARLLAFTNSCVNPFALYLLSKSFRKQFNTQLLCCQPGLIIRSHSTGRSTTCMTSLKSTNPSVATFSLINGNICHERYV

By EC50 is commonly meant the concentration at which the effect is half-maximal. Lower therefore signals an effect from little substance. In the case of `CSCC[C@H](NC(=O)[C@H](CC(C)C)NC(=O)[C@H](Cc1cnc[nH]1)NC(=O)CNC(=O)[C@@H](NC(=O)[C@H](C)NC(=O)[C@H](Cc1c[nH]c2ccccc12)NC(=O)[C@H](CCC(N)=O)NC(=O)CCCCCCCNC(=O)CCCCCN)C(C)C)C(N)=O`, the midpoint of the response, the EC50, lay at 0.373 nM.

The values are drawn from ChEMBL document CHEMBL1143880, “Targeting gastrin-releasing peptide receptors of prostate cancer cells for photodynamic therapy with a phthalocyanine-bombesin conjugate” (Bioorg Med Chem Lett, 2008).
